Assay results reported in PubChem BioAssay AID1259407 (Chemical Carcinogenesis Research Information System (CCRIS), 2018).
Calls of active or inactive are those of the source. No rule for the calls is given here.

Test system: CCRIS mutagenicity, Ames/micronucleus/aberration tests
Assay: CCRIS mutagenicity studies
[1] = Test System: AMES SALMONELLA TYPHIMURIUM, Strain/Indicator: TA100, Metabolic Activation: NONE, Method: PREINCUBATION
[2] = Test System: AMES SALMONELLA TYPHIMURIUM, Strain/Indicator: TA100, Metabolic Activation: RAT, LIVER, S-9, AROCLOR 1254, Method: PREINCUBATION
[3] = Test System: AMES SALMONELLA TYPHIMURIUM, Strain/Indicator: TA98, Metabolic Activation: NONE, Method: STANDARD PLATE
[4] = Test System: AMES SALMONELLA TYPHIMURIUM, Strain/Indicator: TA98, Metabolic Activation: RAT, LIVER, S-9, AROCLOR 1254, Method: STANDARD PLATE
[5] = Test System: AMES SALMONELLA TYPHIMURIUM, Strain/Indicator: TA100, Metabolic Activation: NONE, Method: STANDARD PLATE
[6] = Test System: AMES SALMONELLA TYPHIMURIUM, Strain/Indicator: TA100, Metabolic Activation: RAT, LIVER, S-9, AROCLOR 1254, Method: STANDARD PLATE

C[C@](N)(Cc1ccc(O)c(O)c1)C(=O)O
mutagenic call (End Point: IN VITRO CHROMOSOMAL ABERRATIONS, Test System: CHO CELLS, Metabolic Activation: NONE): inactive; negative
mutagenic call (End Point: IN VITRO CHROMOSOMAL ABERRATIONS, Test System: CHO CELLS, Metabolic Activation: RAT, LIVER, S-9, AROCLOR 1254): inactive; negative; testing limited by solubility of the chemical
mutagenic call (Test System: AMES SALMONELLA TYPHIMURIUM, Strain/Indicator: TA97, Metabolic Activation: HAMSTER, LIVER, S-9, AROCLOR 1254 (10 OR 30%), Method: PREINCUBATION): inactive; negative
mutagenic call (Test System: AMES SALMONELLA TYPHIMURIUM, Strain/Indicator: TA97, Metabolic Activation: HAMSTER, LIVER, S-9, AROCLOR 1254, Method: PREINCUBATION): inactive; negative
mutagenic call (Test System: AMES SALMONELLA TYPHIMURIUM, Strain/Indicator: TA97, Metabolic Activation: NONE, Method: PREINCUBATION): inactive; negative
mutagenic call (Test System: AMES SALMONELLA TYPHIMURIUM, Strain/Indicator: TA97, Metabolic Activation: RAT, LIVER, S-9, AROCLOR 1254 (10 OR 30%), Method: PREINCUBATION): inactive; negative
mutagenic call (Test System: AMES SALMONELLA TYPHIMURIUM, Strain/Indicator: TA97, Metabolic Activation: RAT, LIVER, S-9, AROCLOR 1254, Method: PREINCUBATION): inactive; negative
mutagenic call (Test System: AMES SALMONELLA TYPHIMURIUM, Strain/Indicator: TA98, Metabolic Activation: HAMSTER, LIVER, S-9, AROCLOR 1254 (10%), Method: PREINCUBATION): inactive; negative
mutagenic call (Test System: AMES SALMONELLA TYPHIMURIUM, Strain/Indicator: TA98, Metabolic Activation: HAMSTER, LIVER, S-9, AROCLOR 1254 (30%), Method: PREINCUBATION): inactive; negative
mutagenic call (Test System: AMES SALMONELLA TYPHIMURIUM, Strain/Indicator: TA98, Metabolic Activation: HAMSTER, LIVER, S-9, AROCLOR 1254, Method: PREINCUBATION): inactive; negative
mutagenic call (Test System: AMES SALMONELLA TYPHIMURIUM, Strain/Indicator: TA98, Metabolic Activation: NONE, Method: PREINCUBATION): inactive; negative
mutagenic call (Test System: AMES SALMONELLA TYPHIMURIUM, Strain/Indicator: TA98, Metabolic Activation: RAT, LIVER, S-9, AROCLOR 1254 (10%), Method: PREINCUBATION): inactive; negative
mutagenic call (Test System: AMES SALMONELLA TYPHIMURIUM, Strain/Indicator: TA98, Metabolic Activation: RAT, LIVER, S-9, AROCLOR 1254 (30%), Method: PREINCUBATION): inactive; negative
mutagenic call (Test System: AMES SALMONELLA TYPHIMURIUM, Strain/Indicator: TA98, Metabolic Activation: RAT, LIVER, S-9, AROCLOR 1254, Method: PREINCUBATION): inactive; negative
mutagenic call (Test System: AMES SALMONELLA TYPHIMURIUM, Strain/Indicator: TA100, Metabolic Activation: HAMSTER, LIVER, S-9, AROCLOR 1254 (10%), Method: PREINCUBATION): inactive; negative
mutagenic call (Test System: AMES SALMONELLA TYPHIMURIUM, Strain/Indicator: TA100, Metabolic Activation: HAMSTER, LIVER, S-9, AROCLOR 1254 (30%), Method: PREINCUBATION): inactive; negative
mutagenic call (Test System: AMES SALMONELLA TYPHIMURIUM, Strain/Indicator: TA100, Metabolic Activation: HAMSTER, LIVER, S-9, AROCLOR 1254, Method: PREINCUBATION): inactive; negative
mutagenic call [1]: inactive; negative
mutagenic call (Test System: AMES SALMONELLA TYPHIMURIUM, Strain/Indicator: TA100, Metabolic Activation: RAT, LIVER, S-9, AROCLOR 1254 (10%), Method: PREINCUBATION): inactive; negative
mutagenic call (Test System: AMES SALMONELLA TYPHIMURIUM, Strain/Indicator: TA100, Metabolic Activation: RAT, LIVER, S-9, AROCLOR 1254 (30%), Method: PREINCUBATION): inactive; negative
mutagenic call [2]: inactive; negative
mutagenic call (Test System: AMES SALMONELLA TYPHIMURIUM, Strain/Indicator: TA1535, Metabolic Activation: HAMSTER, LIVER, S-9, AROCLOR 1254 (10%), Method: PREINCUBATION): inactive; negative
mutagenic call (Test System: AMES SALMONELLA TYPHIMURIUM, Strain/Indicator: TA1535, Metabolic Activation: HAMSTER, LIVER, S-9, AROCLOR 1254 (30%), Method: PREINCUBATION): inactive; negative
mutagenic call (Test System: AMES SALMONELLA TYPHIMURIUM, Strain/Indicator: TA1535, Metabolic Activation: HAMSTER, LIVER, S-9, AROCLOR 1254, Method: PREINCUBATION): inactive; negative
mutagenic call (Test System: AMES SALMONELLA TYPHIMURIUM, Strain/Indicator: TA1535, Metabolic Activation: NONE, Method: PREINCUBATION): inactive; negative
mutagenic call (Test System: AMES SALMONELLA TYPHIMURIUM, Strain/Indicator: TA1535, Metabolic Activation: RAT, LIVER, S-9, AROCLOR 1254 (10%), Method: PREINCUBATION): inactive; negative
mutagenic call (Test System: AMES SALMONELLA TYPHIMURIUM, Strain/Indicator: TA1535, Metabolic Activation: RAT, LIVER, S-9, AROCLOR 1254 (30%), Method: PREINCUBATION): inactive; negative
mutagenic call (Test System: AMES SALMONELLA TYPHIMURIUM, Strain/Indicator: TA1535, Metabolic Activation: RAT, LIVER, S-9, AROCLOR 1254, Method: PREINCUBATION): inactive; negative

CCCCCCCCCCCCCC(=O)O[C@@H]1[C@@H](C)[C@@]2(O)[C@@H](C=C(CO)C[C@]3(O)C(=O)C(C)=C[C@@H]23)[C@@H]2C(C)(C)[C@]12OC(C)=O
mutagenic call (End Point: IN VITRO CHROMOSOMAL ABERRATIONS, Test System: CHL/IU CELLS, Metabolic Activation: NONE): inactive; negative
mutagenic call (End Point: IN VITRO MICRONUCLEUS, Test System: CHL/IU CELLS, Metabolic Activation: NONE): inactive; negative

O=[N+]([O-])c1ccccc1C(F)(F)F
mutagenic call [3]: inactive; negative
mutagenic call [4]: inactive; negative
mutagenic call [5]: inactive; negative
mutagenic call [6]: inactive; negative
mutagenic call (Test System: AMES SALMONELLA TYPHIMURIUM, Strain/Indicator: TA1535, Metabolic Activation: NONE, Method: STANDARD PLATE): inactive; negative
mutagenic call (Test System: AMES SALMONELLA TYPHIMURIUM, Strain/Indicator: TA1535, Metabolic Activation: RAT, LIVER, S-9, AROCLOR 1254, Method: STANDARD PLATE): inactive; negative
mutagenic call (Test System: AMES SALMONELLA TYPHIMURIUM, Strain/Indicator: TA1537, Metabolic Activation: NONE, Method: STANDARD PLATE): inactive; negative
mutagenic call (Test System: AMES SALMONELLA TYPHIMURIUM, Strain/Indicator: TA1537, Metabolic Activation: RAT, LIVER, S-9, AROCLOR 1254, Method: STANDARD PLATE): inactive; negative
mutagenic call (Test System: AMES SALMONELLA TYPHIMURIUM, Strain/Indicator: TA1538, Metabolic Activation: NONE, Method: STANDARD PLATE): inactive; negative
mutagenic call (Test System: AMES SALMONELLA TYPHIMURIUM, Strain/Indicator: TA1538, Metabolic Activation: RAT, LIVER, S-9, AROCLOR 1254, Method: STANDARD PLATE): inactive; negative

O=C/C=C/c1ccc([N+](=O)[O-])cc1
mutagenic call (Test System: AMES SALMONELLA TYPHIMURIUM, Strain/Indicator: TA98, Metabolic Activation: HAMSTER, LIVER, S-9, AROCLOR 1254, Method: STANDARD PLATE): active; positive
mutagenic call [3]: active; positive
mutagenic call [4]: active; positive
mutagenic call (Test System: AMES SALMONELLA TYPHIMURIUM, Strain/Indicator: TA100(1,8-DNP6), Metabolic Activation: NONE, Method: PREINCUBATION): active; positive
mutagenic call (Test System: AMES SALMONELLA TYPHIMURIUM, Strain/Indicator: TA100(1,8-DNP6), Metabolic Activation: RAT, LIVER, S-9, AROCLOR 1254, Method: PREINCUBATION): active; positive
mutagenic call (Test System: AMES SALMONELLA TYPHIMURIUM, Strain/Indicator: TA100(NR), Metabolic Activation: NONE, Method: PREINCUBATION): inactive; negative
mutagenic call (Test System: AMES SALMONELLA TYPHIMURIUM, Strain/Indicator: TA100(NR), Metabolic Activation: RAT, LIVER, S-9, AROCLOR 1254, Method: PREINCUBATION): active; positive
mutagenic call (Test System: AMES SALMONELLA TYPHIMURIUM, Strain/Indicator: TA100, Metabolic Activation: HAMSTER, LIVER, S-9, AROCLOR 1254, Method: STANDARD PLATE): active; positive
mutagenic call [1]: active; positive
mutagenic call [5]: active; positive
mutagenic call [2]: active; positive
mutagenic call [6]: active; positive
mutagenic call (Test System: MOUSE LYMPHOMA, Strain/Indicator: L5178Y (TK+/TK-), Metabolic Activation: NONE, Method: SUSPENSION/PLATE): active; positive. reevaluation of results: positive
mutagenic call (Test System: MOUSE LYMPHOMA, Strain/Indicator: L5178Y (TK+/TK-), Metabolic Activation: RAT, LIVER, S-9, AROCLOR 1254, Method: SUSPENSION/PLATE): inactive; negative. reevaluation of results: negative
